Results reported in article PMC12319374, “Efficient and Rapid Arylation of NH₂‐Unprotected Bromobisindole Ethanamines via Suzuki‐Miyaura Coupling: Generating New Leads Against Leishmania” (Chemistry (Weinheim an Der Bergstrasse, Germany), 2025).
Values joined by “and” are separate entries in the source; they are usually repeats but may differ in a detail not shown here. Equal entries are not always repeated. “Also recorded” adds a separate entry of the source.

What was measured:
[1] = system: L. infantum promastigotes; conditions: cited from earlier work; for IC50: read-out: IC50 against L. infantum promastigotes
mammalian cells = system: mammalian cells; parameters: method as in PMID 34984300; conditions: cited from earlier work
Leishmania infection = system: Leishmania infection; parameters: method as in PMID 38870204; conditions: mouse infection model; cited from earlier work
[2] = parameters: method as in PMID 38870204; conditions: cited from earlier work
[3] = system: L. infantum MHOM/TN/80/IPT1 promastigotes; test: L. infantum promastigotes viability assay (MTS); assay type: cell-based, Leishmania infantum; conditions: 72 h; for IC50 / inhibition at 20 µM: Leishmania infantum; for IC50: scalar dilutions 2:3 from 20 to 1.17 µM, mean (95% CI); for inhibition at 20 µM / Inhibition of L. infantum at 20 µM (%): single dose 20 µM
Description: (§1) Finally, eighteen compounds were first screened for efficacy against L. infantum MHOM/TN/80/IPT1 promastigotes at a single dose of 20 µM for 72 hours.
(§2) L. infantum MHOM/TN/80/IPT1 (WHO international reference strain) was purchased from ATCC (ATCC® 50134™) and was cultured in Evans's Modified Tobie Medium (EMTM) at 26–28 °C. To test the compounds, parasites were resuspended in RPMI-PY medium as described previously. The human monocytic cell line THP-1 (ECACC 88081201) was cultured in RPMI-1640 medium supplemented with 10% heat-inactivated Fetal Bovine Serum (FBS), 100 μg/ml streptomycin, […] and maintained in a humidified incubator at 37 °C and 5% CO2. All the cell culture reagents were purchased from Sigma-Aldrich (St. Louis, MO, USA).
Late log/stationary phase L. infantum promastigotes were resuspended in RPMI-PY medium at a density of 2.5×10^6 parasites/mL in 96-well plates (100μL/well). The anti-parasitic activity of the eighteen compounds of the library was initially investigated at a single dose of 20 μM for 72 h at 26 °C. […] Not treated parasites were included as negative control. As positive control, the anti-leishmanial drug miltefosine (Sigma-Aldrich, Milan, Italy) was used. Each condition was carried out in duplicate. To evaluate the promastigotes viability, the CellTiter 96H Aqueous Non-Radioactive Cell Proliferation Assay (Promega), based on the ability of viable cells to convert a soluble tetrazolium salt [3-(4.5-dimethylthiazol-2-yl)-5-(3-carboxymethoxy-phenyl)-2-(4-sulfophenyl)-2H-tetrazolium. MTS] to a formazan product, was performed. To this end, 20 μL of MTS/PMS (phenazinemethosulfate, Sigma-Aldrich) was added to 100 μL of culture medium and incubated at 26°C until formazan production. Absorbance was recorded on a Microplate Reader (Infinite® F50 Plus, Tecan) at 492 nm. The IC50 values were calculated using nonlinear regression curves in GraphPad Prism 8.0 (GraphPad Software,Inc., San Diego, CA). The equation used for data fitting was Y= 100/(1 + 10∧((Log IC50 −X)*HillSlope)) (hillslope not constrained), where X is the log of concentration and Y is the normalized response. […]

[4] = system: intracellular L. infantum amastigotes; test: Anti-amastigote assay on infected THP-1 cells; assay type: cell-based, Leishmania infantum; conditions: 2 µM, 72 h treatment, differentiated THP-1 infected 24 h
Description: Figure 2 Effect of 3ca, 3af, and 3aq on intracellular L. infantum amastigotes. Differentiated THP‐1 cells were infected for 24 hours at 37°C; then, the different compounds were added at 2 µM, and the efficacy on intracellular amastigotes was calculated after 72 hours of treatment. Miltefosine was used as a positive control. (A) Percentages of infection are presented as mean ± SD. Ordinary one‐way ANOVA with Dunnett's multiple comparisons test. *p ≤ 0.05, **p ≤ 0.01 *** p ≤ 0.001. (B) Representative merged images showing THP‐1 cells stained with Hoechst dye (blue) and Leishmania amastigotes stained with CFSE (green).
The activity of compounds 3af, 3ca, and 3aq against intracellular amastigotes was evaluated in THP-1 infected cells. Briefly, THP-1 cells were seeded in a 12-well plate with a density of 3 × 10^5 cells/well and, to induce differentiation into macrophage-like cells, were treated with 20 ng/mL phorbol myristic acid (PMA) for 48 h. After differentiation, cells were infected for 24 h with L. infantum MHOM/TN/80/IPT1 promastigotes stained with carboxyfluorescein succinimidyl ester (eBioscience™ CFSE, Invitrogen) as described in reference, with a parasite-to-cell ratio of 10:1. Non-internalized promastigotes were then removed through medium replacement, and infected cells were treated with 3af, 3ca, and 3aq or with the positive control miltefosine for 72 h at concentrations of 2, 10, and 20 μM. To monitor the infection, cells were washed, formaldehyde/methanol fixed, stained with Hoechst dye, and observed with a fluorescence microscope at 5X or 10X magnification. For each field, two images were acquired: one with excitation at 340-390 nm (for Hoechst dye) and the other with excitation at 460-495 nm (for CFSE). Automated cell counting of single-color images was performed with ImageJ software to monitor the rate of infection, which was determined by normalizing the amastigote count from each green (CFSE) image to the THP-1 cell count from the corresponding blue (Hoechst) image. At least 500 THP-1 cells were counted for each condition. […]

THP-1 cells = test: Evaluation of cytotoxicity on THP-1 cells (MTS); assay type: cell-based, human; conditions: for Cytotoxicity on THP‐1 (100, 20, 4 µM) (%): 72 h, PMA-differentiated THP-1; for SI (Selectivity index = CC50/IC50): CC50 THP-1 (72 h) / IC50 L. infantum promastigotes (72 h)
Description: as §1, §2
(§3) The cytotoxicity of the compounds was assessed on THP-1 cells seeded at a density of 5 × 10^5 cells per mL, 100μL/well in a 96-well plate and treated for 72 h with 20 ng/mL phorbol myristic acid (PMA) to induce differentiation into macrophages like cells. After cell adhesion to the plate, each molecule was tested at 4, 20 and 100 μM for 72 h at 37 °C.
(§4) Three selected compounds were further evaluated at different concentration, obtained from scalar dilutions 1:2 (from 100 µM to 3.12 μM) for 72 h at 37°C. The negative control (untreated THP-1 cells) and the positive control (miltefosine) were included in each experiment. Each condition was carried out in duplicate. To evaluate the compounds cytotoxicity, the CellTiter 96H Aqueous Non-Radioactive Cell Proliferation Assay (Promega), was used as described before. […]

[5] = Evaluation of cytotoxicity on THP-1 cells (MTS); assay type: cell-based, human; conditions: human; 72 h, scalar dilutions 1:2 from 100 to 3.12 µM; mean (95% CI); read-out: THP‐1 CC50 (µM) (95% CI)
Description: as §1, §2, §3, §4

[6] = target: L. donovani DNA topoisomerase I; parameters: method as in PMID 17922678; conditions: read-out: IC50 (DNA topoisomerase I poison); cited from earlier work
[7] = system: human macrophage‐type THP‐1 cell; parameters: method as in PMID 38870204; conditions: cited from earlier work
L. donovani = system: L. donovani; parameters: method as in PMID 23517732; conditions: read-out: IC50 against L. donovani; cited from earlier work

SMILES	IC50 [3] [µM]	inhibition at 20 µM [3] [%]	Effect on infection (intracellular amastigotes) [4]	Cytotoxicity on THP‐1 (100, 20, 4 µM) (%) (THP-1 cells; 4 µM)	Cytotoxicity on THP‐1 (100, 20, 4 µM) (%) (THP-1 cells; 20 µM)	Cytotoxicity on THP‐1 (100, 20, 4 µM) (%) (THP-1 cells; 100 µM)	SI (Selectivity index = CC50/IC50) (THP-1 cells)	CC50 at 72 h [5] [µM]	other results
NCC(c1c[nH]c2cc(Br)ccc12)c1c[nH]c2cc(Br)ccc12 [1a, 2,2‐bis(6‐bromo‐1H‐indol‐3‐yl) ethanamine]									Activity against L. infantum [1]: active
CCOC(=O)c1c(C(=O)OC)cn(CC(c2cn(C)c3ccccc23)c2cn(C)c3ccccc23)c1C [URB1483]									IC50 [1]: 3.7 µM; Cytotoxicity in mammalian cells (mammalian cells): no quantifiable cytotoxicity; Outcome of in vivo studies (Leishmania infection): failed; Water solubility [2]: poor
NCC(c1c[nH]c2c(-c3ccccc3)cccc12)c1c[nH]c2c(-c3ccccc3)cccc12 [3ca, 2,2-bis(7-phenyl-1H-indol-3-yl)ethan-1-amine]	1.7	> 98	significant reduction in the infection; also recorded: significant activity	−19	98%	89	10.7	18.1	Inhibition of L. infantum at 20 µM (%) [3]: 98.0%
c1ccc2c(Cc3c[nH]c4ccccc34)c[nH]c2c1 [DIM, 3,3′‐Diindolylmethane]									IC50 [6]: 1.2 µM
NCC(c1c[nH]c2cc(-c3cccc4[nH]ccc34)ccc12)c1c[nH]c2cc(-c3cccc4[nH]ccc34)ccc12 [3aq, 2,2-di(1H,1'H-[4,6'-biindol]-3'-yl)ethan-1-amine]	2.8	96.9	significant reduction in the infection; also recorded: significant activity	−16	72.9% and 73%	89	5.2	14.6	
Clc1ccc(CNCC(c2c[nH]c3cc(Br)ccc23)c2c[nH]c3cc(Br)ccc23)cc1 [I]									IC50 [1]: 2.7 µM; CC50 [7]: 11.7 µM
C=Cc1ccc(-c2ccc3c(C(CN)c4c[nH]c5cc(-c6ccc(C=C)cc6)ccc45)c[nH]c3c2)cc1 [3af, 2,2-bis(6-(4-vinylphenyl)-1H-indol-3-yl)ethan-1-amine]	1.1	> 98	significant reduction in the infection; also recorded: significant activity	−14	97%	78	21.8	24	Inhibition of L. infantum at 20 µM (%) [3]: 98.7%
O=[N+]([O-])c1ccc(C(c2c[nH]c3ccc(I)cc23)c2c[nH]c3ccc(I)cc23)cc1 [II]									IC50 (L. donovani): < 10 µM
